From paper PMC11619365, “Histone deacetylase 2 and 3 of Sarcoptes scabiei: characterization of a potential drug target” (Microbiology Spectrum, 2024)

Legend:
Assay type in all cases: biochemical
rSsHDAC-3 [1] = target: T1, rSsHDAC-3 (Sarcoptes scabiei, UniProt A0A834REN1); test: fluorogenic trypsin-coupled deacetylase assay (excitation […] nm, emission […] nm); settings: HEPES pH 8.0, 1 mM MgCl2, 37 °C, 2 h
T1 construct: ORF 411 residues (1,236 bp; amplified fragment printed as around 1,000 bp), pET32a(+) N-terminal Trx/His tag kept (about 18 kDa), 63 kDa on SDS-PAGE, E. coli BL21(DE3), soluble, Ni-NTA; no co-repressor partner
T1 sequence (A0A834REN1 1-411): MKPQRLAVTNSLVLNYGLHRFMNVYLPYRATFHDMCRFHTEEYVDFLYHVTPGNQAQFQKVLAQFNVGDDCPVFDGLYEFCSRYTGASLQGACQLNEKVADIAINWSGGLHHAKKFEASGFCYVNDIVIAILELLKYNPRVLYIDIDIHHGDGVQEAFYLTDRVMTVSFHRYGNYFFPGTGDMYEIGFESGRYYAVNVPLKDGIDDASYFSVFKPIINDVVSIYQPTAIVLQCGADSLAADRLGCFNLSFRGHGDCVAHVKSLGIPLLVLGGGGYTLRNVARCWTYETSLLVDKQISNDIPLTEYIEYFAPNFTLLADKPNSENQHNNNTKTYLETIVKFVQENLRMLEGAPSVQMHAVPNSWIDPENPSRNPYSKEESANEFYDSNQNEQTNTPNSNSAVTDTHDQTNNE

rSsHDAC-2 = target: T2, rSsHDAC-2 (Sarcoptes scabiei, UniProt A0A834RGW6); test: fluorogenic trypsin-coupled deacetylase assay; settings: Boc-Lys(ε-Ac)-AMC substrate buffer 100 µM (25 of 50 µL), HEPES pH 8.0, 1 mM MgCl2, 37 °C, 2 h; inhibitor concentration as printed, but 1 µL of it added to 50 µL, so final concentration unclear
T2 sequence (A0A834RGW6 1-304): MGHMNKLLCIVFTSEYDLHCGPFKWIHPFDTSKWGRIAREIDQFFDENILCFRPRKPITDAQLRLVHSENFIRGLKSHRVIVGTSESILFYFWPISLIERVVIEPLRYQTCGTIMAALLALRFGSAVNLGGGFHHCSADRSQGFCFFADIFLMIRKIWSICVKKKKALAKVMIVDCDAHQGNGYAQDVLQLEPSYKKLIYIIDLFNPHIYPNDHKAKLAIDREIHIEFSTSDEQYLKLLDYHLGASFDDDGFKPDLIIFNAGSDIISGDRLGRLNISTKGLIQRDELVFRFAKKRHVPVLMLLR

rSsHDAC-3 [2] = target: T1, rSsHDAC-3; test: fluorogenic trypsin-coupled deacetylase assay

SMILES: CC(=O)NCCCC[C@H](NC(=O)OC(C)(C)C)C(=O)Nc1ccc2c(C)cc(=O)oc2c1 [Boc-Lys(ε-Ac)-AMC]
- fluorogenic trypsin-coupled deacetylase assay (excitation 355 nm, emission 460 n) (rSsHDAC-3 [1]): whereas the intensity in the rSsHDAC-3 group increased significantly

SMILES: COc1ccccc1NC(=O)NCc1ccc(C(=O)NO)cc1 [Elevenostat]
- % inhibition at 10 μM (rSsHDAC-2): 81.2%

SMILES: Nc1cc(F)ccc1NC(=O)/C=C/c1cnn(C/C=C/c2ccccc2)c1 [RGFP966]
- inhibition at 10 µM (rSsHDAC-3 [2]): 68.9%
